The values below come from US20260256925A1, “INDAZOLE DERIVATIVES AS ESTROGEN RECEPTOR DEGRADERS” (REGENTS OF THE UNIVERSITY OF MICHIGAN, priority 2022, published 2026).

The target in one experiment is T1, ER (Homo sapiens, UniProt P03372).
T1 construct: endogenous in cells; probably T47D or MCF-7
T1 sequence (P03372 1-595): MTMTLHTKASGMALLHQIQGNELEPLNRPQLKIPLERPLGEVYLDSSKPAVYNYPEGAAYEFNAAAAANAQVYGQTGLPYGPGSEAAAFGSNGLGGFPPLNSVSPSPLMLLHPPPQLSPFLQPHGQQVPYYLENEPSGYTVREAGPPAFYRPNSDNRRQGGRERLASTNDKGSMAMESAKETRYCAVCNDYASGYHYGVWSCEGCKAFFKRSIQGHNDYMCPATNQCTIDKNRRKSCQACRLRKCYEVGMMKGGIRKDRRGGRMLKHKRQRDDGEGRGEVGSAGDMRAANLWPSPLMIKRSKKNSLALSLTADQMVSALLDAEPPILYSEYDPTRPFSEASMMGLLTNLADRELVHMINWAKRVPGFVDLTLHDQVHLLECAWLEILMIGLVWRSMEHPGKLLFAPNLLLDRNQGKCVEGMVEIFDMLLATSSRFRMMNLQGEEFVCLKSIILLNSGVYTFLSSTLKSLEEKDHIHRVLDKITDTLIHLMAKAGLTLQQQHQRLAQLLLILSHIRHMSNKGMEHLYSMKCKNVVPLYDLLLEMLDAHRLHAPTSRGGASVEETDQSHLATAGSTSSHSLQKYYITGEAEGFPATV
Briefly: In-cell western blot analysis, relative ER percentage (compounds B1-B126). The class given is cell-based. The conditions noted are these: ER degradation, 16 hours, read-out: ICW DC50. Here is the method:
In-cell western blot analysis. Cells are seeded in multi-well plates (e.g., at 40,000 or 10,000 cells/well). Diluted compounds at certain concentration are added (final 0.5% DMSO) and cells are incubated for a certain period of time (e.g., 16 hours). Formaldehyde (e.g., PBS: FA=9:1) is added and followed by washing with PBS. The cells are blocked with Licor blocking buffer (Li-Cor). The relative ER percentage in treated cells are obtained by comparing the values of treated wells to those in untreated and DMSO-treated wells as 100%.
In-cell western blot analysis. a. seed cells in black-sided/clear bottom 96- or 384-well plates at 40,000 or 10,000 cells/well, overnight; b. add diluted compounds (final 0.5% DMSO), 16 hours. […] RT 2h, gentle shaking. Negative control: cells plus secondary antibodies (no primary antibodies); e. wash×4 with PBS +0.05-0.1% Tween 20, gentel shaking; f. anti-rabbit-680 and anti-mouse-800 (both 1:1000 in LiCor block+0.05% Tween20, RT 1h, gentle shaking, no light. LI-COR: 0.2% to reduce background; g. wash×4 with PBS+0.05% Tween 20, gental shaking; h. add 100 μL or 25 μL of PBS to each well and read on CLX plate reader. The relative ER percentage in treated cells were obtained by comparing the values of treated wells to those in untreated and DMSO-treated wells as 100%.
`C[C@H]1Cc2c(ccc3[nH]ncc23)[C@H](c2ccc(N3CC4(CCC(CN5CCN(c6ccc(NC7CCC(=O)NC7=O)cc6F)CC5)CC4)C3)cn2)N1CC(F)(F)F` (stereo partly drawn) [Compound B121, 3-((3-fluoro-4-(4-((2-(6-((6R,8S)-8-methyl-7-(2,2,2-trifluoroethyl)-6,7,8,9-tetrahydro-3H-pyrazolo[4,3-f]isoquinolin-6-yl)pyridin-3-yl)-2-azaspiro[3.5]nonan-7-yl)methyl)piperazin-1-yl)phenyl)amino)piperidine-2,6-dione]: the DC50 was more than 100 nM.

Consider “3-((R)-7-((7-(6-((6S,8R)-7-(2,2- difluoroethyl)-8-methyl-6,7,8,9- tetrahydro-3H-pyrazolo[4,3- f]isoquinolin-6-yl)pyridin-3-yl)-7- azaspiro[3.5]nonan-2-yl)mcthyl)-1- oxo-1,3,5,5a,6,7,8,9-octahydro-2H- pyrazino[1′,2′:4,5][1,4]oxazino[2,3- e]isoindol-2-yl)piperidine-2,6- dione [Compound B83]”, for which the DC50 was more than 100 nM.

As for `C[C@@H]1Cc2c(ccc3[nH]ncc23)[C@@H](c2c(F)cc(C3=CCC(C(=O)N4CCC(N5Cc6cc7c(cc6C5)C(=O)N(C5CCC(=O)NC5=O)C7=O)CC4)CC3)cc2F)N1CC(F)F` (stereo partly shown) [Compound B102], the DC50 is more than 100 nM.

Take `C[C@H]1Cc2c(ccc3[nH]ncc23)[C@H](c2cnc(N3CCC4(CC3)CC(CN3CCN(c5ccc(NC6CCC(=O)NC6=O)cc5F)CC3)C4)nc2)N1CC(F)(F)F` (stereo partly drawn) [Compound B122, 3-((3-fluoro-4-(4-((7-(5-((6R,8S)-8-methyl-7-(2,2,2-trifluoroethyl)-6,7,8,9-tetrahydro-3H-pyrazolo[4,3-f]isoquinolin-6-yl)pyrimidin-2-yl)-7-azaspiro[3.5]nonan-2-yl)methyl)piperazin-1-yl)phenyl)amino)piperidine-2,6-dione]: the DC50 was more than 100 nM.

Regarding `C[C@@H]1Cc2c(ccc3[nH]ncc23)[C@@H](c2ccc(N3CCC4(CCN(CC(=O)N5Cc6cc7c(cc6C5)C(=O)N(C5CCC(=O)NC5=O)C7=O)CC4)CC3)cn2)N1CC(F)F` (stereo partly drawn) [Compound B50, 6-(2-(9-(6-((6S,8R)-7-(2,2-difluoroethyl)-8-methyl-6,7,8,9-tetrahydro-3H-pyrazolo[4,3-f]isoquinolin-6-yl)pyridin-3-yl)-3,9-diazaspiro[5.5]undecan-3-yl)acetyl)-2-(2,6-dioxopiperidin-3-yl)-6,7-dihydropyrrolo[3,4-f]isoindole-1,3(2H,5H)-dione], the DC50 was more than 100 nM.

On to `C[C@H]1Cc2c(ccc3[nH]ncc23)[C@H](c2cnc(N3CC4(CCC(CN5CCN6c7ccc8c(c7OC[C@@H]6C5)CN([C@@H]5CCC(=O)NC5=O)C8=O)CC4)C3)nc2)N1CC(F)(F)F` [Compound B123, (R)-3-((S)-7-((2-(5-((6R,8S)-8-methyl-7-(2,2,2-trifluoroethyl)-6,7,8,9-tetrahydro-3H-pyrazolo[4,3-f]isoquinolin-6-yl)pyrimidin-2-yl)-2-azaspiro[3.5]nonan-7-yl)methyl)-1-oxo-1,3,5,5a,6,7,8,9-octahydro-2H-pyrazino[1′,2′:4,5][1,4]oxazino[2,3-e]isoindol-2-yl)piperidine-2,6-dione], for which the 50% degradation concentration (DC50) was less than 10 nM.

For the compound `C[C@@H]1Cc2c(ccc3[nH]ncc23)[C@@H](c2cnc(N3CCC4(CC3)CC(CN3CCN5c6cc7c(cc6OC[C@@H]5C3)C(=O)N(C3CCC(=O)NC3=O)C7)C4)nc2)N1CC(F)(F)F` (stereo partly drawn) [Compound B113, 3-((S)-3-((7-(5-((6S,8R)-8-methyl-7-(2,2,2-trifluoroethyl)-6,7,8,9-tetrahydro-3H-pyrazolo[4,3-f]isoquinolin-6-yl)pyrimidin-2-yl)-7-azaspiro[3.5]nonan-2-yl)mcthyl)-8-oxo-1,2,3,4,4a,5,8,10-octahydro-9H-pyrazino[1′,2′:4,5][1,4]oxazino[2,3-f]isoindol-9-yl)piperidine-2,6-dione], the DC50 is less than 10 nM.

Take `C[C@H]1Cc2c(ccc3[nH]ncc23)[C@H](c2ccc(N3CCC4(CC3)CC(CN3CCN(c5ccc(NC6CCC(=O)NC6=O)cc5F)CC3)C4)cn2)N1CC(F)(F)F` (stereo partly drawn) [Compound B120, 3-((3-fluoro-4-(4-((7-(6-((6R,8S)-8-methyl-7-(2,2,2-trifluoroethyl)-6,7,8,9-tetrahydro-3H-pyrazolo[4,3-f]isoquinolin-6-yl)pyridin-3-yl)-7-azaspiro[3.5]nonan-2-yl)methyl)piperazin-1-yl)phenyl)amino)piperidine-2,6-dione]: the DC50 is more than 100 nM.

On to `C[C@H]1Cc2c(ccc3[nH]ncc23)[C@H](c2cnc(N3CCC4(CC3)CC(CN3CCN5c6cc7c(cc6OC[C@H]5C3)C(=O)N(C3CCC(=O)NC3=O)C7)C4)nc2)N1CC(F)(F)F` (stereo partly drawn) [Compound B118, 3-((R)-3-((7-(5-((6R,8S)-8-methyl-7-(2,2,2-trifluoroethyl)-6,7,8,9-tetrahydro-3H-pyrazolo[4,3-f]isoquinolin-6-yl)pyrimidin-2-yl)-7-azaspiro[3.5]nonan-2-yl)methyl)-8-oxo-1,2,3,4,4a,5,8,10-octahydro-9H-pyrazino[1′,2′:4,5][1,4]oxazino[2,3-f]isoindol-9-yl)piperidine-2,6-dione], for which the DC50 lay within 10 to 100 nM.

For the compound `COc1cc(N2CCC3(CC2)CC(CN2CCC4(CC2)COc2c4ccc4c2CN(C2CCC(=O)NC2=O)C4=O)C3)ccc1[C@@H]1c2ccc3[nH]ncc3c2C[C@@H](C)N1CC(F)F` (stereo partly drawn) [Compound B56, 3-(1′-((7-(4-((6S,8R)-7-(2,2-difluoroethyl)-8-methyl-6,7,8,9-tetrahydro-3H-pyrazolo[4,3-f]isoquinolin-6-yl)-3-methoxyphenyl)-7-azaspiro[3.5]nonan-2-yl)methyl)-6-oxo-6,8-dihydro-2H,7H-spiro[furo[2,3-e]isoindole-3,4′-piperidin]-7-yl)piperidine-2,6-dione], the DC50 was more than 100 nM.

Tested on in the next experiment: not listed separately
Nature of the experiment: Cell growth assay, WST-8 (compounds B1-B126). The class given is cell-based. To be noted: 96 h; T47D cell line, WST-8, 4 days; read-out: Cell growth inhibition in T47D cell line IC50. Here is the method: Cell Growth Assay. The cells are seeded at certain concentration (e.g., at 1500/well) in multi-well plates overnight. Cells are subsequently treated with the compounds. A certain period of time (e.g., 4 days) after the compound treatment, 10% WST-8 reagent is added to the culture medium and incubate under certain condiction (e.g., in a CO2 incubator at 37° C. for 2.5 hours). The absorbance is measured on each sample using a microplate reader at certain wavelength (e.g., 450 nm). The relative absorbance is calculated against the vehicle control from three individually repeats.
Cell Growth Assay. The cells were seeded at 1500/well in 96 well plates overnight. One day after the seeding, they were treated with indicated doses of compounds respectively. 4 days after the compound treatment, 10% WST-8 reagent was added to the culture medium and incubate in a CO2 incubator at 37° C. for 2.5 hours. Before reading, the plate was mixed gently on an orbital shaker for one minute to ensure homogeneous distribution of color. The absorbance was measured of each sample using a microplate reader at a wavelength of 450 nm. The relative absorbance was calculated against the vehicle control from three individually repeats.
On the technique in general: Tetrazolium dyes change colour on reduction, which living cells bring about.
Turning to `C[C@@H]1Cc2c(ccc3[nH]ncc23)[C@@H](c2ccc(N3CCC4(CCN(C(=O)CN5Cc6cc7c(cc6C5)C(=O)N(C5CCC(=O)NC5=O)C7)CC4)CC3)cn2)N1CC(F)(F)F` (stereo partly drawn) [Compound B74, 3-(6-(2-(9-(6-((6S,8R)-8-methyl-7-(2,2,2-trifluoroethyl)-6,7,8,9-tetrahydro-3H-pyrazolo[4,3-f]isoquinolin-6-yl)pyridin-3-yl)-3,9-diazaspiro[5.5]undecan-3-yl)-2-oxoethyl)-1-oxo-3,5,6,7-tetrahydropyrrolo[3,4-f]isoindol-2(1H)-yl)piperidine-2,6-dione], the IC50 lay within 1 to 10 nM.

For the compound `C[C@@H]1Cc2c(ccc3[nH]ncc23)[C@@H](c2c(F)cc(N3CCC4(CCN(C(=O)CN5Cc6cc7c(cc6C5)C(=O)N(C5CCC(=O)NC5=O)C7=O)CC4)CC3)cc2F)N1CC(F)F` (stereo partly drawn) [Compound B15, 6-(2-(9-(4-((6S,8R)-7-(2,2-difluoroethyl)-8-methyl-6,7,8,9-tetrahydro-3H-pyrazolo[4,3-f]isoquinolin-6-yl)-3,5-difluorophenyl)-3,9-diazaspiro[5.5]undecan-3-yl)-2-oxoethyl)-2-(2,6-dioxopiperidin-3-yl)-6,7-dihydropyrrolo[3,4-f]isoindole-1,3(2H,5H)-dione], the IC50 was less than 1 nM.

Take `C[C@@H]1Cc2c(ccc3[nH]ncc23)[C@@H](c2c(F)cc(N3CCC(CN4CCC5(CCOc6c5ccc5c6CN(C6CCC(=O)NC6=O)C5=O)CC4)CC3)cc2F)N1CC(F)F` (stereo partly drawn) [Compound B47, 3-(1-((1-(4-((6S,8R)-7-(2,2-difluoroethyl)-8-methyl-6,7,8,9-tetrahydro-3H-pyrazolo[4,3-f]isoquinolin-6-yl)-3,5-difluorophenyl)piperidin-4-yl)methyl)-7′-oxo-2′,3′,7′,9′-tetrahydro-8′H-spiro[piperidine-4,4′-pyrano[2,3-e]isoindol]-8′-yl)piperidine-2,6-dione]: the IC50 was less than 1 nM.

As a reminder, the DC50 is the concentration at which degradation of the target reaches its halfway point. Usually IC50 stands for the concentration at which inhibition is half-maximal.
